Source: US20260374773A1, “MULTI-CYCLIC IRAK AND FLT3 INHIBITING COMPOUNDS AND USES THEREOF” (CHILDREN'S HOSPITAL MEDICAL CENTER, priority 2022, published 2026)
pKd: −log10 of the molar value.

Tests used:
IRAK1 = IRAK1 (Homo sapiens, UniProt P51617); assay: DiscoverX KINOMEscan active site-directed competition binding, IRAK1; settings: no ATP
Excerpt: (§1) Kinase binding data were obtained for various exemplary compounds prepared according to Examples 1-8 using the DiscoverX KINOMEscan® active site-directed competition binding site-directed assay protocol described below. […] As a result, the data report thermodynamic interaction affinities (Kd values), rather than IC50 values that are dependent on ATP concentrations. The assay uses a DNA-tagged version of the protein kinase, and an immobilized ligand bound to a solid support. Compounds that directly or indirectly prevent kinase binding to the immobilized ligand reduce the amount of kinase captured on the solid support, which is detected using an ultra-sensitive qPCR method. Affinity constants reported from the assay have been reported to be independent of the immobilized ligand used that is coupled to the solid support (See supplemental information in Fabian, M. A. et. al., (2005) Nat. Biotechnol. 23, 329-336; Wodicka, L. M. et. al., (2010) Chem. Biol. 17, 1241-1249.)
(§2) Kinase-tagged T7 phage strains were prepared in an E. coli host derived from the BL21 strain. E. coli were grown to log-phase and infected with T7 phage and incubated with shaking at 32 °C until lysis. The lysates were centrifuged and filtered to remove cell debris. The remaining kinases were produced in HEK-293 cells and subsequently tagged with DNA for qPCR detection. Streptavidin-coated magnetic beads were treated with biotinylated small molecule ligands for 30 minutes at room temperature to generate affinity resins for kinase assays. The liganded beads were blocked with excess biotin and washed with blocking buffer (SeaBlock (Pierce), 1% BSA, 0.05% Tween 20, 1 mM DTT) to remove unbound ligand and to reduce non-specific binding. […] Test compounds were prepared as 111x stocks in 100% DMSO. Kds were determined using an 11-point 3-fold compound dilution series with three DMSO control points. All compounds for Kd measurements are distributed by acoustic transfer (non-contact dispensing) in 100% DMSO. The compounds were then diluted directly into the assays such that the final concentration of DMSO was 0.9%. All reactions were performed in polypropylene 384-well plates. Each was a final volume of 0.02 mL. The assay plates were incubated at room temperature with shaking for 1 hour and the affinity beads were washed with wash buffer (1×PBS, 0.05% Tween 20). The beads were then re-suspended in elution buffer (1×PBS, 0.05% Tween 20, 0.5 μM nonbiotinylated affinity ligand) and incubated at room temperature with shaking for 30 minutes. The kinase concentration in the eluates was measured by qPCR. Binding constants (Kds) were calculated with a standard dose-response curve using the Hill equation. The Hill Slope was set to −1. Curves were fitted using a non-linear least square fit with the Levenberg-Marquardt algorithm.
as §1, with “9-12” for “1-8”
(§3) Kinase-tagged T7 phage strains were prepared in an E. coli host derived from the BL21 strain. […]

FLT3 ITD, F691L = biological target: T1, FLT3 ITD, F691L (Homo sapiens, UniProt P36888, F691L/ITD); assay: DiscoverX KINOMEscan active site-directed competition binding, FLT3 ITD, F691L; settings: no ATP
T1 construct: F691L gatekeeper
T1 sequence (P36888 27-993 F691L): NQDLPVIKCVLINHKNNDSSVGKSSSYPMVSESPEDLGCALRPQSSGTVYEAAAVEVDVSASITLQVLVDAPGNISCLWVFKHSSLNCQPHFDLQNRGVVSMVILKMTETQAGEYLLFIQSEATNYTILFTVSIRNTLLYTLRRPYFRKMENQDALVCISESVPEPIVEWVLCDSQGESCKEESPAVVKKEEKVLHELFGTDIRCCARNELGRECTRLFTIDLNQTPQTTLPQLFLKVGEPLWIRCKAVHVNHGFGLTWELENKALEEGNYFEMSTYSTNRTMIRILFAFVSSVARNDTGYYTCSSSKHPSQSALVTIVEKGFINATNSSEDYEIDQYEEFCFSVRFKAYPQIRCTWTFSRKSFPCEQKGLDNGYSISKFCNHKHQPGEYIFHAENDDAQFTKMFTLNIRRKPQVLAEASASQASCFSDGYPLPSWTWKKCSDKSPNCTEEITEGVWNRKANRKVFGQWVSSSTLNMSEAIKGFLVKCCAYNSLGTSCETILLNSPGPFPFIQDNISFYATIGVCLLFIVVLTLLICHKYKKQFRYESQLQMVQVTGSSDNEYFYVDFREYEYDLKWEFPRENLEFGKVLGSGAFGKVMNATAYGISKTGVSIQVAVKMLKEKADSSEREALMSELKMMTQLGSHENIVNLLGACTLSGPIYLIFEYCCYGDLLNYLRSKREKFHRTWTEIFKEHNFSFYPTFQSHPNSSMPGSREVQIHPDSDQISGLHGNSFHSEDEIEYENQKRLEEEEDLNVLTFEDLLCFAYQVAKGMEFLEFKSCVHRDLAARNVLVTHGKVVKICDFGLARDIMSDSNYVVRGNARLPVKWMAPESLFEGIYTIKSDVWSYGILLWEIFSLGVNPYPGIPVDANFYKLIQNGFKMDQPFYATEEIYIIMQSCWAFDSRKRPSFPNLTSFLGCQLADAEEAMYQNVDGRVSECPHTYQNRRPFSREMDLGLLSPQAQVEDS
Excerpt: as §1, §2
as §1, with “9-12” for “1-8”
as §3

IRAK1, sequence (P51617 whole entry): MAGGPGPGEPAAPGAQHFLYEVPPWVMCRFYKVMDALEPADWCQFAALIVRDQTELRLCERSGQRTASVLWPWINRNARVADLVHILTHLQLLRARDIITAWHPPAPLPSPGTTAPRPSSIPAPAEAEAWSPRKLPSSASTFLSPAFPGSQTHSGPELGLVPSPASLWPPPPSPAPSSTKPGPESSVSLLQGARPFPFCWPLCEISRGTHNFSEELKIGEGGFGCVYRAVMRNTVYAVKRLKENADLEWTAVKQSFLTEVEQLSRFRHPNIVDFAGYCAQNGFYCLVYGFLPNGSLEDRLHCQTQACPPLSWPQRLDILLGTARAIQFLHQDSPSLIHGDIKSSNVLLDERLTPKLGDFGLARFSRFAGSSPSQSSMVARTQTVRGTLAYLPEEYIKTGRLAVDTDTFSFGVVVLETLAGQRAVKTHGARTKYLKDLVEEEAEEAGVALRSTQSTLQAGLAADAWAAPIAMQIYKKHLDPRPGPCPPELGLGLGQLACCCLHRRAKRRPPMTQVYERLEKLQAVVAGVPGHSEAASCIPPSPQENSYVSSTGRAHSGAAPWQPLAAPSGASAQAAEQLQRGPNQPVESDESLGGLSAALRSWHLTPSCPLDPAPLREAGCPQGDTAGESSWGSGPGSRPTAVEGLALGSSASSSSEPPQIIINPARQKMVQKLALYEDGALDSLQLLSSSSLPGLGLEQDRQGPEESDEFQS

| pKd (IRAK1; Table 12) | pKd (FLT3 ITD, F691L; Table 13) | pKd (IRAK1; Table 18) | pKd (FLT3 ITD, F691L; Table 19) | Compound |
| --- | --- | --- | --- | --- |
| 9.57 | > 9.77 | – | – | COc1cn2ncc(-c3nc(N[C@H]4CNCC[C@@H]4F)c(F)cc3F)c2nc1C(C)(C)O [Compound 13, 2-(3-(3,5-difluoro-6-(((3S,4S)-4-fluoropiperidin-3-yl)amino)pyridin-2-yl)-6-methoxypyrazolo[1,5-a]pyrimidin-5-yl)propan-2-ol] |
| – | – | > 9.77 | > 9.77 | COc1cn2ncc(-c3nc(N[C@@H]4CCCNC4)ncc3F)c2nc1C1CC1 [Compound 14a, (R)-4-(5-cyclopropyl-6-methoxypyrazolo[1,5-a]pyrimidin-3-yl)-5-fluoro-N-(piperidin-3-yl)pyrimidin-2-amine] |
| 9.09 | > 9.77 | – | – | COc1cn2ncc(-c3nc(N[C@H]4CNCC[C@@H]4F)c(C#N)cc3F)c2nc1C(C)(C)O [Compound 10, 5-fluoro-2-(((3S,4S)-4-fluoropiperidin-3-yl)amino)-6-(5-(2-hydroxypropan-2-yl)-6-methoxypyrazolo[1,5-a]pyrimidin-3-yl)nicotinonitrile] |
| – | – | > 9.77 | > 9.77 | COc1cn2ncc(-c3nc(N[C@H]4CNCC[C@@H]4F)ncc3F)c2nc1C1CC1 [Compound 15a, 4-(5-cyclopropyl-6-methoxypyrazolo[1,5-a]pyrimidin-3-yl)-5-fluoro-N-((3S,4S)-4-fluoropiperidin-3-yl)pyrimidin-2-amine] |
| > 9.77 | > 9.77 | – | – | COc1cn2ncc(-c3nc(N[C@H]4CNCC[C@@H]4F)c(C#N)cc3F)c2nc1C1CC1 [Compound 7, 6-(5-cyclopropyl-6-methoxypyrazolo[1,5-a]pyrimidin-3-yl)-5-fluoro-2-(((3S,4S)-4-fluoropiperidin-3-yl)amino)nicotinonitrile] |
| – | – | 9.11 | > 9.77 | COc1cn2ncc(-c3cncc(N[C@H]4CNCC[C@@H]4F)n3)c2nc1C1CC1 [Compound 12a, 6-(5-cyclopropyl-6-methoxypyrazolo[1,5-a]pyrimidin-3-yl)-N-((3S,4S)-4-fluoropiperidin-3-yl)pyrazin-2-amine] |
| – | – | 9.55 | > 9.77 | COc1cn2ncc(-c3nc(N[C@H]4CNCC[C@@H]4F)ncc3F)c2nc1C(C)(C)O [Compound 6a, 2-(3-(5-fluoro-2-(((3S,4S)-4-fluoropiperidin-3-yl)amino)pyrimidin-4-yl)-6-methoxypyrazolo[1,5-a]pyrimidin-5-yl)propan-2-ol] |
| – | – | 9.28 | > 9.77 | COc1cn2ncc(-c3ccnc(N[C@H]4CNCC[C@@H]4F)n3)c2nc1C1CC1 [Compound 7a, 4-(5-cyclopropyl-6-methoxypyrazolo[1,5-a]pyrimidin-3-yl)-N-((3S,4S)-4-fluoropiperidin-3-yl)pyrimidin-2-amine] |
